Reference: PubChem BioAssay AID1919005 (Molecular Pharmacology Branch, DTP, NCI, 2023)
Values joined by “and” are separate entries in the source; they are usually repeats but may differ in a detail not shown here. Equal entries are not always repeated.

System: 855422-203-R-J1-PDC complex spheroid growth
Test: Anticancer human tumor 855422-203-R-J1-PDC patient-derived bladder carcinoma cell line growth inhibition [AhR]
Conditions: for viability, T/C: stronger effect = lower value
Procedure, shortened: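 Complex tumor spheroids co-cultured with HUVEC and human MSC stroma; AhR antagonists tested in combination with standard-of-care and investigational agents. Top concentration at or near clinical Cmax (else 10 microM), half-log dilutions; growth expressed as percent test/control.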
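Also: spheroids exposed to agents for seven days before readout.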
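For viability, T/C in this document: percent of DMSO vehicle control luminescence viability.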

`CC(C)CC(NC(=O)C(Cc1ccccc1)NC(=O)c1cnccn1)B(O)O` (stereo not drawn) + Cc1cncc(-c2nc(NCCc3c[nH]c4ccccc34)c3ncn(C(C)C)c3n2)c1 was tested, and the IC50 (curve of first compound, second compound 0.1 µM) was 2.14 nM, the IC50 (curve of first compound, second compound 0.316 µM) was 2.02 nM and the IC50 (curve of first compound, second compound 1 µM) was 1.68 nM. The IC50 (curve of first compound, second compound 3.16 µM) was 1.29 nM, the IC50 (curve of first compound, second compound 10 µM) was < 0.949 nM and the viability, T/C (second compound 0.1 µM, first compound 0.000949 µM) was 93%. The viability, T/C (second compound 0.1 µM, first compound 0.003 µM) was 32.3%, the viability, T/C (second compound 0.1 µM, first compound 0.00949 µM) was 1.54% and the viability, T/C (second compound 0.1 µM, first compound 0.03 µM) was 0.03%. It also gave a viability, T/C (second compound 0.1 µM, first compound 0.0949 µM) of 0.02%, a viability, T/C (second compound 0.1 µM, first compound 0.3 µM) of 0.1% and a viability, T/C (second compound 0.316 µM, first compound 0.000949 µM) of 103%. The viability, T/C (second compound 0.316 µM, first compound 0.003 µM) was 22.5%, the viability, T/C (second compound 0.316 µM, first compound 0.00949 µM) was 2.79% and the viability, T/C (second compound 0.316 µM, first compound 0.03 µM) was 0.01%. The viability, T/C (second compound 0.316 µM, first compound 0.0949 µM) was 0.01%, the viability, T/C (second compound 0.316 µM, first compound 0.3 µM) was 0.09% and the viability, T/C (second compound 1 µM, first compound 0.000949 µM) was 90.6%. It also gave a viability, T/C (second compound 1 µM, first compound 0.003 µM) of 9.23%, a viability, T/C (second compound 1 µM, first compound 0.00949 µM) of 1.41% and a viability, T/C (second compound 1 µM, first compound 0.03 µM) of 0.02%. It also gave a viability, T/C (second compound 1 µM, first compound 0.0949 µM) of 0.03%, a viability, T/C (second compound 1 µM, first compound 0.3 µM) of 1.34% and a viability, T/C (second compound 3.16 µM, first compound 0.000949 µM) of 66.5%. For the same compound, the viability, T/C (second compound 3.16 µM, first compound 0.003 µM) was 4.56%, the viability, T/C (second compound 3.16 µM, first compound 0.00949 µM) was 0.97% and the viability, T/C (second compound 3.16 µM, first compound 0.03 µM) was 2.11%. The viability, T/C (second compound 3.16 µM, first compound 0.0949 µM) was 0.02%, the viability, T/C (second compound 3.16 µM, first compound 0.3 µM) was 0.68% and the viability, T/C (second compound 10 µM, first compound 0.000949 µM) was 4.11%. For the same compound, the viability, T/C (second compound 10 µM, first compound 0.003 µM) was 0.69%, the viability, T/C (second compound 10 µM, first compound 0.00949 µM) was 0.08% and the viability, T/C (second compound 10 µM, first compound 0.03 µM) was 1.49%. The viability, T/C (second compound 10 µM, first compound 0.0949 µM) was 0.1% and the viability, T/C (second compound 10 µM, first compound 0.3 µM) was 0.73%.

With `NS(=O)(=O)OCC1CC(n2ccc3c(NC4CCc5ccccc54)ncnc32)CC1O` (stereo not drawn) the viability, T/C (compound 0.0316 µM) was 99.2% and 99.8% and 104%, the viability, T/C (compound 0.1 µM) was 113% and 118% and 105% and the viability, T/C (compound 0.316 µM) was 114% and 130% and 106%. The viability, T/C (compound 1 µM) was 91.4% and 97.8% and 66.8%, the viability, T/C (compound 3.16 µM) was 35.2% and 53.6% and 26.8% and the viability, T/C (compound 10 µM) was 9.55% and 14.4% and 8.49%. For the same compound, the IC50 (curve of compound) was 2340 nM and 3420 nM and 1640 nM.

`Nc1ncn(C2CC(O)C(CO)O2)c(=O)n1` (stereo not drawn) was tested, and the viability, T/C (compound 0.00316 µM) was 94.3% and 107% and 95.8%, the viability, T/C (compound 0.01 µM) was 96.5% and 98.7% and 94.9% and the viability, T/C (compound 0.0316 µM) was 91.6% and 97.8% and 87.2%. The viability, T/C (compound 0.1 µM) was 87.2% and 88.3% and 87.7%, the viability, T/C (compound 0.316 µM) was 86.9% and 90.8% and 79.8% and the viability, T/C (compound 1 µM) was 83.3% and 83.5% and 78.8%. For the same compound, the IC50 (curve of compound) was > 1000 nM.

With `O=C(C=Cc1cccc(S(=O)(=O)Nc2ccccc2)c1)NO` the viability, T/C (compound 0.0316 µM) was 84% and 110% and 92.6%, the viability, T/C (compound 0.1 µM) was 84.6% and 109% and 91.1% and the viability, T/C (compound 0.316 µM) was 88.4% and 108% and 90%. For the same compound, the viability, T/C (compound 1 µM) was 69% and 106% and 70.5%, the viability, T/C (compound 3.16 µM) was 29.5% and 61% and 34.7% and the viability, T/C (compound 10 µM) was 0.96% and 4.09% and 0.82%. For the same compound, the IC50 (curve of compound) was 1770 nM and 3950 nM and 1950 nM.

In the case of `CCc1c2c(nc3ccc(O)cc13)-c1cc3c(c(=O)n1C2)COC(=O)[C@]3(O)CC`, the viability, T/C (compound 0.000949 µM) is reported as 96.8% and 105% and 92.3%, the viability, T/C (compound 0.003 µM) is reported as 83.7% and 99.2% and 88.8% and the viability, T/C (compound 0.00949 µM) is reported as 44.9% and 86.1% and 49.6%. The viability, T/C (compound 0.03 µM) was 14.9% and 32.5% and 16.6%, the viability, T/C (compound 0.0949 µM) was 8.05% and 16.5% and 9.46% and the viability, T/C (compound 0.3 µM) was 5.61% and 9.17% and 5.63%. For the same compound, the IC50 (curve of compound) was 8.17 nM and 20.7 nM and 9.7 nM.
